Measured values: US11779661B2, “Theranostic nucleic acid binding fluorescent nanoprobes and uses thereof” (The General Hospital Corporation, priority 2016, dated 2023)

Test system: Bacterial Phage Lambda DNA
Assay: In vitro nucleic acid binding fluorescence assay, Lambda DNA
Settings: equivalent fluorochrome concentrations, FIG. 1F
Description: Bacterial Phage Lambda DNA (Sigma-Aldrich), CpG DNA (Enzo Life, Plymouth Meeting, Pa.), Torula yeast RNA (Sigma-Aldrich) were completely dissolved in Tris-acetate-EDTA (TAE) buffer (pH=8) by gentle inversion overnight at 4° C. Lambda DNA, CpG DNA, yeast RNA stock solutions were characterized by spectrophotometry to determine the concentration and purity. Total mouse heart RNA was extracted from C57Bl6 mouse hearts using TRI Reagent (Sigma-Aldrich) and characterized with a NanoDrop spectrophotometer (Thermo Fisher) as described in Feng Y, Chen H, et al., J Biol Chem. 2015; 290: 26688-98. […] Fluorescence was measured with the GloMax-Multi Detection System and snap-in fluorescent optical kits (Promega, Madison, Wis.). EC50 was determined using the dose-response curve fitting function implemented in Prism (GraphPad, La Jolla, Calif.).

Row | Fluorescence increase with DNA concentration | Compound
1 | substantially less increase | CN1/C(=C/c2cc[n+](CCC[N+](C)(C)C)c3ccccc23)Sc2ccccc21 [TO-PRO 1]
2 | No fluorescence increase and none | Cy5.5
